Test results taken from PubChem BioAssay AID977606 (Broad Institute, 2014).
Values joined by “and” are separate entries in the source; they are usually repeats but may differ in a detail not shown here. Equal entries are not always repeated. Active and inactive are the calls of the source. The rule behind the calls is not given here.

System: INS-1E Gaussia luciferase insulin secretion, no glucose, luminescence
Test: glucose-independent GLuc insulin release activation – cell-based, INS-1E, Gaussia luciferase, luminescence, cherry-pick, counter-screen for glucose-dependent insulin secretion activators, dose response (AID 977606)

Going from COc1ccc(C(=O)Cc2ccc3c(c2)OCO3)c(O)c1 to COc1cc(CN2CCc3ccccc3C2)ccc1O, the AC40 falls from 25 µM to 13.6 µM (1.8-fold).

Going from NC(N)=N/N=C/c1ccc(N(c2ccccc2)c2ccccc2)cc1 to NC(N)=N/N=C/c1ccc(OCc2ccccc2)c(OCc2ccccc2)c1, the AC40 rises from 4.06 µM to 6.87 µM (1.7-fold).

Going from COC(=O)C1=C(C)N(Cc2cccc(C(F)(F)F)c2)C(=NCc2ccccc2)NC1c1ccc(Cl)cc1 (centres undefined) to OC(CNCCc1ccc(C(F)(F)F)cc1)COC(c1ccccc1)c1ccccc1 (centres undefined), the AC40 falls from 10.4 µM to 4.72 µM (2.2-fold).

First: CCOc1cc(N2CCOCC2)c(OCC)cc1NC(=O)COC(=O)c1cc2ccccc2cc1O
Second: CCOc1ccc2nc(NCCNC(=O)Nc3ccccc3)c(C#N)cc2c1
The AC40 of the first is 1.7-fold lower: 4.74 µM for the first, 8.22 µM for the second.

First: Cc1ccc(S(=O)(=O)C=CS(=O)(=O)c2ccc(C)cc2)cc1
Second: Cc1ccc(-c2n[nH]c(=S)n2/N=C/c2c(C)nn(-c3ccccc3)c2C)cc1
The AC40 of the first is 29-fold lower: 0.228 µM for the first, 6.5 µM for the second.

Going from O=C(N/N=C/c1ccco1)c1cc(-c2ccc3ccccc3c2)n[nH]1 to Clc1ccc(-c2ccnc(Oc3ccc4ccccc4c3)n2)cc1, the AC40 rises from 3.97 µM to 7.79 µM (2-fold).

Going from Cc1nc2c(=O)n(C)c(=O)n(C)c2nc1Cl to Cc1ccc2c(Cl)c(C)c(N3CCCCC3)nc2n1, the AC40 falls from 23.6 µM to 9.65 µM (2.4-fold).

First: COC(=O)c1cnn(-c2nc(-c3ccccc3)cs2)c1N
Second: OC(c1ccccc1)(c1nc(-c2cccc(C(F)(F)F)c2)cs1)C(F)(F)F (centres undefined)
The AC40 of the first is 2-fold higher: 20.4 µM for the first, 10.1 µM for the second.

First: Cc1ccc(NC(=O)CNC(=O)c2sc3ccccc3c2Cl)nc1
Second: Cc1ccc(C)c(C(=O)Nc2nc3ccccc3[nH]2)c1
The AC40 of the first is 2.2-fold higher: 10.3 µM for the first, 4.67 µM for the second.

Going from COc1ccccc1CCn1cnc(-c2ccccc2OC)c1CC(C)C to COc1ccccc1CCn1cnc(-c2ccc(F)cc2)c1CC(C)C, the AC40 falls from 11.4 µM to 6.41 µM (1.8-fold).

CC(C)C(Cl)=NOC(=O)Nc1ccc(S(N)(=O)=O)cc1 and NS(=O)(=O)c1ccc(NC(=S)N2CCN(c3ccc(Cl)c(Cl)c3)CC2)cc1 are within 1.5-fold of each other in AC40: 4.58 µM for the first, 3.74 µM for the second.

CC1(Cc2cc(Cl)ccc2C(F)(F)F)C(=O)Nc2cc(C(F)(F)F)ccc21 (centres undefined) and NC[C@H](Cc1ccccc1)NCCc1cc(C(F)(F)F)cc(C(F)(F)F)c1 are within 1.5-fold of each other in AC40: 12.4 µM for the first, 9.24 µM for the second.

Compared with Cc1cccc(OCC(=O)Nc2ccc(NC(=O)c3ccco3)cc2)c1, Cc1ccc2nc(-c3ccc(NC(=O)COC(=O)c4ccco4)cc3)sc2c1 is 3.3-fold lower in AC40: 12.4 µM for the first, 3.8 µM for the second.

Going from Cc1ccccc1-n1sc2cc(F)ccc2c1=O to O=c1c2ccccc2sn1-c1ccccc1, the AC40 rises from 0.539 µM to 1.79 µM (3.3-fold).

Going from NC1=NC[C@H](c2ccccc2)N1CCCCC1CCCCC1 to FC(F)(F)c1cc(CCN2CCNC[C@@H]2CC2CCCCC2)cc(C(F)(F)F)c1, the AC40 falls from 17.4 µM to 4.05 µM (4.3-fold).

Compared with CC(NCC(O)COCCC12CC3CC(CC(C3)C1)C2)c1ccccc1 (centres undefined), OC1(C#Cc2c(-c3ccsc3)sc3ccccc23)CCCCC1 is 1.6-fold higher in AC40: 8.21 µM for the first, 13.3 µM for the second.

Going from OC[C@@H]1[C@@H](c2ccc(C#CC3CCCC3)cc2)[C@H]2CN(CCC(F)(F)F)CCCCN12 to CCN1CCN(Cc2ccc(NC(=O)c3cccc(-c4ccc5nc(NC(=O)C6CC6)sc5n4)c3)cc2C(F)(F)F)CC1, the AC40 rises from 6.32 µM to 12 µM (1.9-fold).

CCCc1cc(-c2nc(-c3ccc(C)cc3)cs2)ccn1 and CCOc1ccc(Nc2oc(-c3ccc(Cl)cc3)nc2C#N)cc1 are within 1.5-fold of each other in AC40: 7.92 µM for the first, 5.43 µM for the second.

Going from COc1cc(CN2[C@@H]3CNC[C@H]2C3c2ccc(/C=C/c3ccccc3)cc2)cc(OC)c1 (some centres undefined) to COc1cccc(OCc2nc3c4cnn(-c5ccccc5)c4ncn3n2)c1, the AC40 falls from 9.7 µM to 6.42 µM (1.5-fold).

O=C(NCC1OCCc2ccccc21)c1ccc(NC(=O)c2cccc(Br)c2)cc1 (centres undefined) and CC(C)(C)S(=O)N1Cc2cc(C(=O)Nc3ccc(-c4ccccc4)cc3)nc(-c3cccc(-c4cccc(F)c4)c3)c2[C@@H]1CCO (some centres undefined) are within 1.5-fold of each other in AC40: 11.1 µM for the first, 13.4 µM for the second.

c1ccc(Oc2ccccc2-c2cc(NCCc3cccnc3)n3nccc3n2)cc1 and COc1cc2c3nnc(-c4ccccc4)c-3cn(Cc3ccccc3F)c2cc1OC are within 1.5-fold of each other in AC40: 13.1 µM for the first, 15.6 µM for the second.

Going from COc1ccc(NC(=O)Cn2cnc3c(cnn3-c3ccc(C)c(C)c3)c2=O)c(OC)c1 to COc1ccc(OC)c(NC(=O)c2cc3c(Cl)nc4ccccc4c3s2)c1, the AC40 rises from 3.41 µM to 6.97 µM (2-fold).

COc1ccccc1C(=O)NC(=S)Nc1ccc2[nH]c(=O)[nH]c2c1 and C/C(=N\NC(=O)c1ccc(Cl)c(Cl)c1)c1ccc(Br)s1 are within 1.5-fold of each other in AC40: 8.24 µM for the first, 7.32 µM for the second.

CCOC(=O)[C@]12Cc3cc(OC)ccc3[C@H]1N(C1CCCCC1)C(=O)c1cc(OC)ccc12 and CCOC(=O)c1c(C)n(-c2ccc(C)cc2)c2ccc(OCC(O)CN3CCN(C)CC3)cc12 (centres undefined) are within 1.5-fold of each other in AC40: 11.7 µM for the first, 17.2 µM for the second.

First: O=c1c2ccccc2nc(-c2ccco2)n1/N=C/c1ccccc1O
Second: O=C(NCc1ccccn1)c1coc(=O)c(Br)c1
The AC40 of the first is 7.4-fold higher: 11.7 µM for the first, 1.59 µM for the second.

Cc1cc(C)n(-c2nc(NCCN(C)C)c3c4c(sc3n2)CCCC4)n1 gave an AC40 of 10.7 µM.

For Nn1c(-c2ccccc2)cc(-c2ccccc2)cc1=O, the AC40 was > 35 µM (inactive).
Cc1cccc(-c2ccc(C3[C@@H]4CN(Cc5cccc(F)c5)C[C@H]3N4)cc2)c1 (some centres undefined) was tested, and the AC40 was 4.33 µM and 2.3 µM.
With CCOC(=O)c1c(NC(=O)c2ccoc2C)sc(C(=O)N(C)C)c1C the AC40 was > 35 µM (inactive).
